What was measured:
JAK2 = JAK2 (Homo sapiens (Human), UniProt O60674); experiment: Jak biochemical HTRF assay, JAK2; conditions: recombinant purified GST-tagged catalytic domain, HTRF format
Description: (§1) Jak Biochemical HTRF Assay Protocol
(§2) Subsequent reagent additions employed an Agilent Bravo.

JAK1 = JAK1 (Homo sapiens (Human), UniProt P23458); experiment: Jak biochemical HTRF assay, JAK1; conditions: recombinant purified GST-tagged catalytic domain; HTRF format; [ATP] 31.8 μM
Description: as §1, §2

JAK1, sequence (P23458 875-1153): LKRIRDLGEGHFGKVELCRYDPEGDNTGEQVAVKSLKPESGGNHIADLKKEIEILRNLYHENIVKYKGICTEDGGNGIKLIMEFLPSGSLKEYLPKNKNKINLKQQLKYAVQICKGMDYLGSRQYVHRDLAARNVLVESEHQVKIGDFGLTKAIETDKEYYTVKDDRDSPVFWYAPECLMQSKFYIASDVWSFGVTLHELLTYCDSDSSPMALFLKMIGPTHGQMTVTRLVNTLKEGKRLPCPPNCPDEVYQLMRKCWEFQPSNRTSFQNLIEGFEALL
JAK2, sequence (O60674 849-1124): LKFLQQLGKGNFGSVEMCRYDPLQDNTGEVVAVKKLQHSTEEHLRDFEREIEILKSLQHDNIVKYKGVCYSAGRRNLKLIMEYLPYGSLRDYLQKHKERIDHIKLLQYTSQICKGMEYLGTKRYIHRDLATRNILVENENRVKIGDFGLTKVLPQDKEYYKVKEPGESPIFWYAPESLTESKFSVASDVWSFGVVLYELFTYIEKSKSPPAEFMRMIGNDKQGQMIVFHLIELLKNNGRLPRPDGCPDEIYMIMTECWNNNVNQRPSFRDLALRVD

| SMILES | IC50 (JAK2; [ATP] 8.5 μM) [nM] | IC50 (JAK1) [nM] | IC50 (JAK2; [ATP] […]) [nM] |
| --- | --- | --- | --- |
| N#C[C@@H]1CNCC[C@H]1n1cc(C(N)=O)c(Nc2ccc(F)cc2)n1 (racemic) [Example 3-2, 1-[(3R,4R and 3S,4S)-3-cyanopiperidin-4-yl]-3-[(4-fluorophenyl)amino]-1H-pyrazole-4-carboxamide] | 81 | 7 |  |
| N#C[C@@H]1CN(C(=O)OCC(F)(F)CO)CC[C@@H]1n1cc(C(N)=O)c(Nc2ccc(F)cc2)n1 (racemic) [Example 5-67, 2,2-difluoro-3-hydroxypropyl (3R,4S and 3S,4R)-4-{4-carbamoyl-3-[(4-fluorophenyl)amino]-1H-pyrazol-1-yl}-3-cyanopiperidine-1-carboxylate] | 1200 | 69 |  |
| N#C[C@@H]1CN(C(=O)OCCc2ccccc2)CC[C@@H]1n1cc(C(N)=O)c(Nc2ccc(F)cc2)n1 (racemic) [Example 5-48, 2-phenylethyl (3R,4S and 3S,4R)-4-{4-carbamoyl-3-[(4-fluorophenyl)amino]-1H-pyrazol-1-yl}-3-cyanopiperidine-1-carboxylate] | > 1500 | 403 |  |
| CN(C)CC(C)(C)COC(=O)N1CC[C@@H](C#N)C(n2cc(C(N)=O)c(Nc3ccc(F)cc3)n2)C1 (mixture of isomers) [Example 5-75, 3-(dimethylamino)-2,2-dimethylpropyl (3S,4R and 3R,4S)-3-{4-carbamoyl-3-[(4-fluorophenyl)amino]-1H-pyrazol-1-yl}-4-cyanopiperidine-1-carboxylate] | 444 | 16 |  |
| N#C[C@@H]1CN(C(=O)OC2Cc3ccccc3C2)CC[C@H]1n1cc(C(N)=O)c(Nc2ccc(F)cc2)n1 (racemic) [Example 5-37, 2,3-dihydro-1H-inden-2-yl (3R,4R and 3S,4S)-4-{4-carbamoyl-3-[(4-fluorophenyl)amino]-1H-pyrazol-1-yl}-3-cyanopiperidine-1-carboxylate] | > 1500 | 54 |  |
| CC(OC(=O)N1CC[C@@H](C#N)C(n2cc(C(N)=O)c(Nc3ccc(F)cc3)n2)C1)C(F)(F)F (mixture of isomers) [Example 5-70, 2,2,2-trifluoro-1-methylethyl (3S,4R and 3R,4S)-3-{4-carbamoyl-3-[(4-fluorophenyl)amino]-1H-pyrazol-1-yl}-4-cyanopiperidine-1-carboxylate] | 135 | 8 |  |
| CN(C)CCOC(=O)N1CC[C@@H](C#N)C(n2cc(C(N)=O)c(Nc3ccc(F)cc3)n2)C1 (mixture of isomers) [Example 5-86, 2-(dimethylamino)ethyl (3S,4R and 3R,4S)-3-{4-carbamoyl-3-[(4-fluorophenyl)amino]-1H-pyrazol-1-yl}-4-cyanopiperidine-1-carboxylate] | 352 | 9 |  |
| N#C[C@@H]1CN(C(=O)OCCc2ccccc2)CC[C@H]1n1cc(C(N)=O)c(Nc2ccc(F)cc2)n1 (racemic) [Example 5-36, 2-phenylethyl (3R,4R and 3S,4S)-4-{4-carbamoyl-3-[(4-fluorophenyl)amino]-1H-pyrazol-1-yl}-3-cyanopiperidine-1-carboxylate] | 823 | 86 |  |
| CC(OC(=O)N1CC[C@H](n2cc(C(N)=O)c(Nc3ccc(F)cc3)n2)[C@H](C#N)C1)C(F)(F)F (mixture of isomers) [Example 5-43, 2,2,2-trifluoro-1-methylethyl (3R,4S and 3S,4R)-4-{4-carbamoyl-3-[(4-fluorophenyl)amino]-1H-pyrazol-1-yl}-3-cyanopiperidine-1-carboxylate] | > 1500 | 188 |  |

Further lines, results first:

| IC50 (JAK2; [ATP] 8.5 μM) [nM] | IC50 (JAK1) [nM] | IC50 (JAK2; [ATP] […]) [nM] | SMILES |
| --- | --- | --- | --- |
|  | 84 | 292 | C[C@@]1(C#N)CS(=O)(=O)C[C@@H]1n1cc(C(N)=O)c(Nc2ccc(F)cc2)n1 (single isomer, unassigned) [Example 14-2, 1-((3R,4R or 3S,4S)-4-Cyano-4-methyl-1,1-dioxidotetrahydrothiophen-3-yl)-3-((4-fluorophenyl)amino)-1H-pyrazole-4-carboxamide] |
| 34 | 3 |  | N#C[C@@H]1CN(Cc2ccon2)CC[C@H]1n1cc(C(N)=O)c(Nc2ccc(F)cc2)n1 (racemic) [Example 6-24, 1-[(3R,4R and 3S,4S)-3-cyano-1-(isoxazol-3-ylmethyl)piperidin-4-yl]-3-[(4-fluorophenyl)amino]-1H-pyrazole-4-carboxamide] |
| 63 | 6 |  | N#C[C@@H]1CCN(CC2CCOC2)C[C@H]1n1cc(C(N)=O)c(Nc2ccc(F)cc2)n1 (mixture of isomers) [Example 6-21, 1-[(3S,4R and 3R,4S)-4-cyano-1-(tetrahydrofuran-3-ylmethyl)piperidin-3-yl]-3-[(4-fluorophenyl)amino]-1H-pyrdzole-4-carboxamide] |
|  | 0.07 | 0.7 | N#Cc1ccc(Nc2nn([C@H]3COCC[C@@H]3C#N)cc2C(N)=O)cc1 (single isomer, unassigned) [Example 9-35, 3-[(4-cyanophenyl)amino]-1-[(3R, 4S or 3S,4R)-4-cyanotetrahydro-2H-pyran-3-yl]-1H-pyrazole-4-carboxamide] |
| 77 | 6 |  | N#C[C@@H]1CCN(Cc2cccnn2)CC1n1cc(C(N)=O)c(Nc2ccc(F)cc2)n1 (mixture of isomers) [Example 6-1, 1-[(3S,4R and 3R,4S)-4-Cyano-1-(pyridazin-3-ylmethyl)piperidin-3-yl]-3-[(4-fluorophenyl)amino]-1H-pyrazole-4-carboxamide] |
| 111 | 10 |  | Cc1c(CN2CC[C@@H](n3cc(C(N)=O)c(Nc4ccc(F)cc4)n3)[C@H](C#N)C2)cnn1C (racemic) [Example 6-34, 1-{(3R,4R and 3S,4S)-3-cyano-1-[(1,5-dimethyl-1H-pyrazol-4-yl)methyl]piperidin-4-yl}-3-[(4-fluorophenyl)amino]-1H-pyrazole-4-carboxamide] |
| 26 | 2 |  | N#C[C@@H]1CCN(Cc2cnccn2)C[C@H]1n1cc(C(N)=O)c(Nc2ccc(F)cc2)n1 (racemic) [Example 6-2, 1-[(3S,4R and 3R,4S)-4-cyano-1-(pyrazin-2-ylmethyl)piperidin-3-yl]-3-[(4-fluorophenyl)amino]-1H-pyrazole-4-carboxamide] |
| 5 | 0.8 |  | N#C[C@H]1CCOC[C@@H]1n1cc(C(N)=O)c(Nc2ccc(F)nc2)n1 (single isomer, unassigned) [Example 9-29, 1-[(3R,4S or 3S,4R)-4-cyanotetrahydro-2H-pyran-3-yl]-3-[(6-fluoropyridin-3-yl)amino]-1H-pyrazole-4-carboxamide] |
| 82 | 7 |  | CCn1ccnc1CN1CC[C@@H](n2cc(C(N)=O)c(Nc3ccc(F)cc3)n2)[C@H](C#N)C1 (racemic) [Example 6-38, 1-{(3R,4R and 3S,4S)-3-cyano-1-[(1-ethyl-1H-imidazol-2-yl)methyl]piperidin-4-yl}-3-[(4-fluorophenyl)amino]-1H-pyrdzole-4-carboxamide] |
| 19 | 2 |  | N#C[C@@H]1CCN(Cc2cscn2)C[C@H]1n1cc(C(N)=O)c(Nc2ccc(F)cc2)n1 (racemic) [Example 6-6, 1-[(3S,4R and 3R,4S)-4-cyano-1-(1,3-thiazol-4-ylmethyl)piperidin-3-yl]-3-[(4-fluorophenyl)amino]-1H-pyrazole-4-carboxamide] |

— US9394282B2, “Pyrazole carboxamides as Janus kinase inhibitors” (Merck Sharp & Dohme Corp., priority 2011, dated 2016)
